According to publication PMC2358886, “Evolution of pharmacologic specificity in the pregnane X receptor” (BMC Evolutionary Biology, 2008):
Like-named read-outs stand apart in the source and are kept apart here.

Experiments:
human PXR [1] = biological target: T1, human PXR (Homo sapiens, UniProt O75469); experiment: PXR activation luciferase reporter assay, human PXR in HepG2-NTCP cells
T1 sequence (O75469 1-434): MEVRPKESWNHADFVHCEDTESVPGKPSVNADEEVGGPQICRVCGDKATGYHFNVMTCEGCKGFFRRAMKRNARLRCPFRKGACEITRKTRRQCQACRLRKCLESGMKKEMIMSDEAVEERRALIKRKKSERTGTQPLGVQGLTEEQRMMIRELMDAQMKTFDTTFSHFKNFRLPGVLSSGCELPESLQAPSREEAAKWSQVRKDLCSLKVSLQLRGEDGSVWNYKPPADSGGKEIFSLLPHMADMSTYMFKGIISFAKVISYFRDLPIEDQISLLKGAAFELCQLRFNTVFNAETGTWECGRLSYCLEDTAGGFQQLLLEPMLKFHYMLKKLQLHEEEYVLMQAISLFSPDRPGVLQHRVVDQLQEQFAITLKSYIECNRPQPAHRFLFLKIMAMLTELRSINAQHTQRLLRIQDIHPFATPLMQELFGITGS

chicken PXR [2] = biological target: T2, chicken PXR (Gallus gallus, UniProt Q9DFH3); experiment: cell-based
T2 sequence (Q9DFH3 1-391): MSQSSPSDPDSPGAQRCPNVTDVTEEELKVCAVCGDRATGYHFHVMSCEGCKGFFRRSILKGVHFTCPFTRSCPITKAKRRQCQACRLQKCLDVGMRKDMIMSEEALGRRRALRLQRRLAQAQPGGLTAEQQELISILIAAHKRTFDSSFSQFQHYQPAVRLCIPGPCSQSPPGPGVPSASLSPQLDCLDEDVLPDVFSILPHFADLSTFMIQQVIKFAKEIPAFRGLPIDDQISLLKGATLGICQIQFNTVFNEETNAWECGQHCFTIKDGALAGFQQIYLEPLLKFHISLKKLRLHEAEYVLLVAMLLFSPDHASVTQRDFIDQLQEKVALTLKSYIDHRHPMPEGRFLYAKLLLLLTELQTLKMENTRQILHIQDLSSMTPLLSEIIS

zebrafish PXR [3] = biological target: T3, zebrafish PXR (Danio rerio, UniProt A5WYG8); experiment: cell-based
T3 sequence (A5WYG8 144-430): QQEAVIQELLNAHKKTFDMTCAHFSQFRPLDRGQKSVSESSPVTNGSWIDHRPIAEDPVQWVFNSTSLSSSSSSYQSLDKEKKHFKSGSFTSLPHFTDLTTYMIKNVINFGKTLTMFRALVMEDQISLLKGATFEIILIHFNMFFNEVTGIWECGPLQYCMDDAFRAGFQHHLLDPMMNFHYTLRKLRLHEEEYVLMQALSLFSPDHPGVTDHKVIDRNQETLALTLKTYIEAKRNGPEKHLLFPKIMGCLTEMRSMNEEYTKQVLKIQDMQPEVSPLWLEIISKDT

human PXR [4] = biological target: T1, human PXR
chicken PXR [5] = biological target: T2, chicken PXR; details: for Chicken PXR Activity: -log(EC50), EC50 in molar units
HepG2 cells [6] = test system: HepG2 cells
zebrafish PXR [7] = biological target: T3, zebrafish PXR; details: for zfPXR Activity: -log(EC50), EC50 in molar units, activation of zebrafish PXR
rabbit PXR = biological target: T4, rabbit PXR (Oryctolagus cuniculus, UniProt Q9TU02); experiment: PXR activation luciferase reporter assay, rabbit PXR; details: for Rabbit PXR efficacy, ε: relative to 50 μM 5α-pregnan-3,20-dione, assigned an efficacy of 1.0; for Rabbit PXR Activity: -log(EC50), EC50 in molar units
T4 sequence (Q9TU02 1-411): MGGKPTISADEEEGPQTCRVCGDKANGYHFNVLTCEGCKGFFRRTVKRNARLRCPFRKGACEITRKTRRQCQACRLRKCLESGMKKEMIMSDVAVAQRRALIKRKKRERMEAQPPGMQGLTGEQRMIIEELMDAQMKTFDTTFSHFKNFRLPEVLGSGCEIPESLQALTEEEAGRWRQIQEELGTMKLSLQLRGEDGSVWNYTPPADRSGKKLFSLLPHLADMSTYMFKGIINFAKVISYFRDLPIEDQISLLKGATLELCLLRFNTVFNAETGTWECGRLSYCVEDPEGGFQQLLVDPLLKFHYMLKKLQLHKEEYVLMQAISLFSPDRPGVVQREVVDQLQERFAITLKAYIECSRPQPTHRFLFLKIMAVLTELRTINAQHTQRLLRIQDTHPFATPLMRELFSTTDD

HepG2 cells [8] = experiment: Toxicity assays in HepG2 cells (MTT and alamar blue reduction); details: lowest concentration that produced significant toxicity in the HepG2 cells
rat PXR = biological target: T5, rat PXR (Rattus norvegicus, UniProt Q9R1A7); details: for Rat PXR Activity: -log(EC50), EC50 in molar units
T5 sequence (Q9R1A7 1-431): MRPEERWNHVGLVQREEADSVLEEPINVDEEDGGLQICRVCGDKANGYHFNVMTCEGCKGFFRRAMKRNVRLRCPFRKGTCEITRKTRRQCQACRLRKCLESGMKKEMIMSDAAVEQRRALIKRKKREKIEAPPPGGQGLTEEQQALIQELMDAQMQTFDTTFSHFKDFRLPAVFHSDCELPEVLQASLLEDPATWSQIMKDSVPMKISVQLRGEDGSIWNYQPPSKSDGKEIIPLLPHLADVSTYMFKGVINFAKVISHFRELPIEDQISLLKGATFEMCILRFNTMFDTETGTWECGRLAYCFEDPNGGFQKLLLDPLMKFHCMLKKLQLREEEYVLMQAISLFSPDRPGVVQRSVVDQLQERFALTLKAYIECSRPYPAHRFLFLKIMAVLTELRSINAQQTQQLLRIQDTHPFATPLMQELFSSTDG

mouse PXR = biological target: T6, mouse PXR (Mus musculus, UniProt O54915); details: for Mouse PXR Activity: -log(EC50), EC50 in molar units
T6 sequence (O54915 1-431): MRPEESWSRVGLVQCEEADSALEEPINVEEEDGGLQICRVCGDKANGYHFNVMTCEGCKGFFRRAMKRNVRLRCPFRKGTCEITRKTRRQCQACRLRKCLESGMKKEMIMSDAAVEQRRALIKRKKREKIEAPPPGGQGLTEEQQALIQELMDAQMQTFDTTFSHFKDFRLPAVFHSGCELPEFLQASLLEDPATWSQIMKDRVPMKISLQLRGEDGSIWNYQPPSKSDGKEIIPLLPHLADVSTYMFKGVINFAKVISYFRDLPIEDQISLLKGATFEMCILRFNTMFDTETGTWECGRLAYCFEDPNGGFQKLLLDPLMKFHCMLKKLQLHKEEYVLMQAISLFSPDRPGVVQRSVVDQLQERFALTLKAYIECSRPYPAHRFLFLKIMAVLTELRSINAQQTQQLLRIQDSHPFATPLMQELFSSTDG

[9] = hPXR Activity, -log(EC50), EC50 in molar units, activation of human PXR
[10] = relative to 20 μM 5α-androstan-3α-ol, assigned an efficacy of 1.0
[11] = -log(EC50), EC50 in molar units, activation of human PXR

C[C@]12CC[C@@H](O)C[C@@H]1CC[C@@H]1[C@@H]2CC[C@]2(C)[C@@H](O)CC[C@@H]12 [AN1, 5α-Androstan-3α,17β-diol]
EC50 (human PXR [1]; [9]): 4.17 µM
EC50 (chicken PXR [2]): 8.51 µM
EC50 (zebrafish PXR [3]; zfPXR Activity, -log(EC50), EC50 in molar units, activation of zebrafish PXR): 6.46 µM
hPXR Efficacy (human PXR [4]; human): 0.68
Chicken PXR efficacy, ε (chicken PXR [5]; relative to 20 μM nifedipine, assigned an efficacy of 1.0): 2.28
Toxicity (HepG2 cells [6]): None
zfPXR Efficacy (zebrafish PXR [7]; [10]): 0.84

C[C@@]12CCC[C@H]1[C@@H]1CC[C@H]3C[C@H](O)CC[C@]3(C)[C@H]1CC2 [AN3, 5α-Androstan-3α-ol]
EC50 (human PXR [1]; [9]): 6.31 µM
EC50 (chicken PXR [2]): 4.17 µM
EC50 (zebrafish PXR [3]): 4.57 µM
hPXR Efficacy (human PXR [4]; human): 0.5
Chicken PXR efficacy, ε (chicken PXR [5]; chicken): 0.85
Toxicity (HepG2 cells [6]): None
zfPXR Efficacy (zebrafish PXR [7]; [10]): 1.00

C[C@]12CC[C@H](O)C[C@@H]1CC[C@@H]1[C@@H]2CC[C@]2(C)C=CC[C@@H]12 [AN21, 5α-Androst-16-en-3β-ol]
EC50 (human PXR [1]): 4.79 µM
EC50 (chicken PXR [2]): 7.24 µM
EC50 (zebrafish PXR [3]): 3.31 µM
Chicken PXR efficacy, ε (chicken PXR [5]; chicken): 2.99
Toxicity (HepG2 cells [6]; human, 24 hr): 50 µM
zfPXR Efficacy (zebrafish PXR [7]; zebrafish): 2.11

C[C@]12CCC(=O)C[C@@H]1CC[C@@H]1[C@@H]2CC[C@]2(C)C=CC[C@@H]12 [AN22, 5α-Androst-16-en-3-one]
EC50 (human PXR [1]): 3.02 µM
EC50 (chicken PXR [2]): 10.2 µM
EC50 (zebrafish PXR [3]): 2.63 µM
Chicken PXR efficacy, ε (chicken PXR [5]; chicken): 0.77
Toxicity (HepG2 cells [6]; human, 24 hr): 100 µM
zfPXR Efficacy (zebrafish PXR [7]; zebrafish): 0.68

CC(CCC(=O)NCC(=O)O)C1CCC2C3C(O)CC4CC(O)CCC4(C)C3CCC12C (stereo not shown) [BI006, Glycochenodeoxycholic acid]
EC50 (chicken PXR [2]): 25.1 µM
Chicken PXR efficacy, ε (chicken PXR [5]; chicken): 0.41

CC(CCC(=O)NCC(=O)O)C1CCC2C3CCC4CC(O)CCC4(C)C3CC(O)C12C (stereo not shown) [BI009, Glycodeoxycholic acid]
EC50 (rabbit PXR): 15.5 µM
Rabbit PXR efficacy, ε (rabbit PXR): 0.40

C[C@H](CCC(=O)NCCS(=O)(=O)O)[C@H]1CC[C@H]2[C@@H]3CC[C@@H]4C[C@H](O)CC[C@]4(C)[C@H]3C[C@H](O)[C@]12C [BI010, Taurodeoxycholic acid]
EC50 (rabbit PXR): 14.5 µM
Rabbit PXR efficacy, ε (rabbit PXR): 0.15

C[C@H](CCC(=O)O)[C@H]1CC[C@H]2[C@@H]3C(=O)C[C@@H]4C[C@H](O)CC[C@]4(C)[C@H]3C[C@H](O)[C@]12C [BI042, 5β-Cholanic acid-3α,12α-diol-7-one]
Rabbit PXR Activity (rabbit PXR): 4.31
Rabbit PXR efficacy, ε (rabbit PXR): 1.55
hPXR Activity (human PXR [1]; [11]): 4.24
hPXR Efficacy (human PXR [1]; relative to 10 μM rifampicin, assigned an efficacy of 1.0): 0.49
Toxicity (HepG2 cells [8]): None
zfPXR Activity (zebrafish PXR [7]): None

C[C@H](CCC(=O)NCCS(=O)(=O)O)[C@H]1CC[C@H]2[C@@H]3[C@@H](O)[C@@H](O)[C@@H]4C[C@H](O)CC[C@]4(C)[C@H]3CC[C@]12C [BI046, 5β-Cholanic acid-3α,6β,7β-triol N-(2-sulfoethyl)-amide]
Rabbit PXR Activity (rabbit PXR): No effect
Rat PXR Activity (rat PXR): No effect
hPXR Activity (human PXR [1]; [11]): None
Mouse PXR Activity (mouse PXR): No effect
Toxicity (HepG2 cells [8]): None
Chicken PXR Activity (chicken PXR [5]): No effect
zfPXR Activity (zebrafish PXR [7]): None

CC(C)CCC[C@@H](C)[C@H]1CC[C@H]2[C@@H]3[C@H](O)C=C4C[C@@H](O)CC[C@]4(C)[C@H]3CC[C@]12C [BI047, 7α-Hydroxycholesterol]
Rabbit PXR Activity (rabbit PXR): No effect
Rat PXR Activity (rat PXR): No effect
hPXR Activity (human PXR [1]; [11]): None
Mouse PXR Activity (mouse PXR): No effect
Chicken PXR Activity (chicken PXR [5]): No effect
Toxicity (HepG2 cells [6]): None
zfPXR Activity (zebrafish PXR [7]): None

c1ccc2c(c1)cc1ccc3cccc4ccc2c1c34 [MI3, Benzo [a]pyren]
Rabbit PXR Activity (rabbit PXR): No effect
Rat PXR efficacy, ε (rat PXR): 0.45
Rat PXR Activity (rat PXR): 4.85
hPXR Activity (human PXR [1]; [11]): 4.75
Mouse PXR efficacy, ε (mouse PXR): 0.94
Mouse PXR Activity (mouse PXR): 4.86
hPXR Efficacy (human PXR [4]): 0.55
Chicken PXR efficacy, ε (chicken PXR [5]): 0.50
Chicken PXR Activity (chicken PXR [5]): 4.40
Toxicity (HepG2 cells [6]): 100 µM
zfPXR Efficacy (zebrafish PXR [7]): 0.06
zfPXR Activity (zebrafish PXR [7]): 4.00
